Biological target: T1, mu opiate receptor (MOR) (Rattus norvegicus, UniProt P33535)
T1 construct: from tissue; host or cells: rat striatal membrane preparation
Assay: MOR agonist activity using [35S]GTPγS binding assay in striatal membranes
Assay type: biochemical
Details: 0.1 μM compound, striatal membranes
Procedure: To assess the mu opiate receptor (MOR) agonist activity of positive compounds from the FLNA screening, compounds were tested in a [^35S]GTPγS binding assay using striatal membranes.
Striatal tissue was homogenized in 10 volumes of ice cold 25 mM HEPES buffer, pH 7.4, which contained 1 mM EGTA, 100 mM sucrose, 50 μg/ml leupeptin, 0.04 mM PMSF, 2 μg/ml soybean trypsin inhibitor and 0.2% 2-mercaptoethanol. The homogenates were centrifuged at 800×g for 5 minutes and the supernatants were centrifuged at 49,000×g for 20 minutes.
The resultant striatal membrane preparation (200 μg) was admixed and maintained (incubated) at 30° C. for 5 minutes in reaction buffer as above that additionally contained 1 mM MgCl2 and 0.5 nM [^35S]GTPγS (0.1 μCi/assay, PerkinElmer Life and Analytical Sciences) in a total volume of 250 μl and continued for 5 minutes in the absence or presence of 0.1-10 μM of an assayed compound of interest. The reaction was terminated by dilution with 750 μl of ice-cold reaction buffer that contained 20 mM MgCl2 and 1 mM EGTA and immediate centrifugation at 16,000×g for 5 minutes.
The resulting pellet was solubilized by sonicating for 10 seconds in 0.5 ml of immunoprecipitation buffer containing 0.5% digitonin, 0.2% sodium cholate and 0.5% NP-40. Normal rabbit serum (1 μl) was added to 1 ml of lysate and incubated at 25° C. for 30 minutes. Nonspecific immune complexes were removed by incubation with 25 μl of protein A/G-conjugated agarose beads at 25° C. for 30 minutes followed by centrifugation at 5,000×g at 4° C. for 5 minutes. The supernatant was divided and separately incubated at 25° C. for 30 minutes with antibodies raised against Gαo proteins (1:1,000 dilutions).
The immunocomplexes so formed were collected by incubation at 25° C. for 30 minutes with 40 μl of agarose-conjugated protein A/G beads and centrifugation at 5,000×g at 4° C. for 5 minutes. The pellet was washed and suspended in buffer containing 50 mM Tris-HCl, pH 8.0, and 1% NP-40. The radioactivity in the suspension was determined by liquid scintillation spectrometry. […] DAMGO (H-Tyr-D-Ala-Gly-N-MePhe-Gly-OH; 1 or 10 μM) was used as a positive control.

T1 sequence (P33535 whole entry): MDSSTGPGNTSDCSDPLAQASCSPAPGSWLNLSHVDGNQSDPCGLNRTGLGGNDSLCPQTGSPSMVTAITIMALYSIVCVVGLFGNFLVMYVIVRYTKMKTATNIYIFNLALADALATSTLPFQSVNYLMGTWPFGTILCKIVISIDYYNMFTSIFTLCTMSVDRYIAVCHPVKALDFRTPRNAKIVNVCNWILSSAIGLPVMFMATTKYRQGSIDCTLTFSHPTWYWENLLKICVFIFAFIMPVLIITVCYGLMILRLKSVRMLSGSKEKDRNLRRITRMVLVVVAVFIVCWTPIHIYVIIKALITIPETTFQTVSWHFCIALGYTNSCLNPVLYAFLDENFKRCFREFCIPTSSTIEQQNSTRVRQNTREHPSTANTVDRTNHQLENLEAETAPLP

SMILES	MOR agonist activity, [35S]GTPγS binding to Gαo, FLNA-binding compound as agonist 0.1 μM [%]
O=S(=O)(c1cccs1)N1CCC2(CC1)OCCN2S(=O)(=O)c1cccs1 [Compound C0141M]	161.5
O=S(=O)(c1cccc2cccnc12)N1CCC2(CC1)OCCN2S(=O)(=O)c1cccc2cccnc12 [Compound C0143M]	81.0
COc1ccc(S(=O)(=O)N2CCC3(OCCN3S(=O)(=O)c3ccc(OC)cc3)C3CCCCC32)cc1 (stereo not drawn) [Compound C0144M]	186.3
COc1ccc(S(=O)(=O)N2CCCC3(C2)OCCN3S(=O)(=O)c2ccc(OC)cc2)cc1 (stereo not drawn) [Compound C0145M]	193.0
O=S(=O)(c1ccc(Oc2ccccc2)cc1)N1CCC2(CC1)OCCN2S(=O)(=O)c1ccc(Oc2ccccc2)cc1 [Compound C0149M]	209.8
O=S(=O)(c1csc2ccccc12)N1CCC2(CC1)OCCN2S(=O)(=O)c1csc2ccccc12 [Compound C0150M]	167.1
COc1ccc(NC(=O)N2CCC3(CC2)OCCN3C(=O)Nc2ccc(OC)cc2)cc1 [Compound C0151M]	346.8
C[C@@H](NC(=O)[C@@H](N)Cc1ccc(O)cc1)C(=O)NCC(=O)N(C)[C@@H](Cc1ccccc1)C(=O)NCCO [DAMGO, reference compound]	168.5

Same assay, conditions: 1 μM compound + 1 μM β-funaltrexamine

SMILES	MOR agonist activity, [35S]GTPγS binding to Gαo, 1 μM + BFNA [%]
O=S(=O)(c1cccs1)N1CCC2(CC1)OCCN2S(=O)(=O)c1cccs1 [Compound C0141M]	47.9
O=S(=O)(c1cccc2cccnc12)N1CCC2(CC1)OCCN2S(=O)(=O)c1cccc2cccnc12 [Compound C0143M]	86.5
COc1ccc(S(=O)(=O)N2CCC3(OCCN3S(=O)(=O)c3ccc(OC)cc3)C3CCCCC32)cc1 (stereo not drawn) [Compound C0144M]	125.9
COc1ccc(S(=O)(=O)N2CCCC3(C2)OCCN3S(=O)(=O)c2ccc(OC)cc2)cc1 (stereo not drawn) [Compound C0145M]	87.0
O=S(=O)(c1ccc(Oc2ccccc2)cc1)N1CCC2(CC1)OCCN2S(=O)(=O)c1ccc(Oc2ccccc2)cc1 [Compound C0149M]	93.4
O=S(=O)(c1csc2ccccc12)N1CCC2(CC1)OCCN2S(=O)(=O)c1csc2ccccc12 [Compound C0150M]	158.1
COc1ccc(NC(=O)N2CCC3(CC2)OCCN3C(=O)Nc2ccc(OC)cc2)cc1 [Compound C0151M]	212.8
C[C@@H](NC(=O)[C@@H](N)Cc1ccc(O)cc1)C(=O)NCC(=O)N(C)[C@@H](Cc1ccccc1)C(=O)NCCO [DAMGO, reference compound]	53.2

Same assay, conditions: 1 μM compound, striatal membranes

SMILES	MOR agonist activity, [35S]GTPγS binding to Gαo, FLNA-binding compound as agonist 1 μM [%]
O=S(=O)(c1cccs1)N1CCC2(CC1)OCCN2S(=O)(=O)c1cccs1 [Compound C0141M]	213.9
O=S(=O)(c1cccc2cccnc12)N1CCC2(CC1)OCCN2S(=O)(=O)c1cccc2cccnc12 [Compound C0143M]	193.3
COc1ccc(S(=O)(=O)N2CCC3(OCCN3S(=O)(=O)c3ccc(OC)cc3)C3CCCCC32)cc1 (stereo not drawn) [Compound C0144M]	295.9
COc1ccc(S(=O)(=O)N2CCCC3(C2)OCCN3S(=O)(=O)c2ccc(OC)cc2)cc1 (stereo not drawn) [Compound C0145M]	289.2
O=S(=O)(c1ccc(Oc2ccccc2)cc1)N1CCC2(CC1)OCCN2S(=O)(=O)c1ccc(Oc2ccccc2)cc1 [Compound C0149M]	406.7
O=S(=O)(c1csc2ccccc12)N1CCC2(CC1)OCCN2S(=O)(=O)c1csc2ccccc12 [Compound C0150M]	423.1
COc1ccc(NC(=O)N2CCC3(CC2)OCCN3C(=O)Nc2ccc(OC)cc2)cc1 [Compound C0151M]	397.6
C[C@@H](NC(=O)[C@@H](N)Cc1ccc(O)cc1)C(=O)NCC(=O)N(C)[C@@H](Cc1ccccc1)C(=O)NCCO [DAMGO, reference compound]	266.1

Tested on: not listed separately
Assay: Mouse hot-water tail-flick test
Assay type: in vivo
Details: orally administered, mouse, 52° C. tail flick
Procedure: The mouse “tail flick” test was used to assay the relative antinociceptive activity of compositions containing a compound to be assayed. This assay was substantially that disclosed by Xie et al., 2005 J. Neurosci 25:409-416.
The mouse hot-water tail-flick test was performed by placing the distal third of the tail in a water bath maintained at 52° C. The latency until tail withdrawal from the bath was determined and compared among the treatments. A 10 second cutoff was used to avoid tissue damage. Data are converted to percentage of antinociception by the following formula: (response latency−baseline latency)/(cutoff−baseline latency)×100 to generate dose-response curves. […] Relative potency was determined as a ratio of the A50 values.
To assess tolerance to the antinociceptive effect, the compound was administered twice daily for 7 days at an A90 dose (dose that results in a 90% antinociceptive effect in the 52° C. warm-water tail-flick test), and the tail-flick test was performed daily after the a.m. dose.

SMILES	A50 value (95% confidence interval)
CN1CC[C@]23c4c5ccc(O)c4O[C@H]2[C@@H](O)C=C[C@H]3[C@H]1C5 [morphine, reference compound]	61.8 (52.4−72.9) mg/kg

Tested on: primary human astrocytes
Assay: LPS-induced cytokine release from primary human astrocytes
Assay type: cell-based
Details: 10 pM, 2 hours prior to LPS and 24 hours

SMILES	IL-1β Average % (±SEM)	IL-6 Average % (±SEM)	TNF-α Average % (±SEM)
C=CCN1CC[C@]23c4c5ccc(O)c4O[C@H]2C(=O)CC[C@]3(O)[C@H]1C5 [(+)Naloxone, (+)naloxone, reference compound]	75.9 (4.5) %	56.9 (4.4) %	58.6 (2.0) %

Same assay, conditions: 1 nM, 2 hours prior to LPS and 24 hours

SMILES	IL-1β Average % (±SEM)	IL-6 Average % (±SEM)	TNF-α Average % (±SEM)
C=CCN1CC[C@]23c4c5ccc(O)c4O[C@H]2C(=O)CC[C@]3(O)[C@H]1C5 [(+)Naloxone, (+)naloxone, reference compound]	10.5 (4.8) %	6.8 (4.3) %	9.2 (6.0) %

Biological target: MOR (Rattus norvegicus, UniProt P33535)
Sequence (P33535 whole entry): as above
Assay: Relative Gs/Go switching: MOR-G protein coupling in organotypic striatal slice cultures
Details: 10 μM, striatal slice culture
Procedure: The threshold for significance was p<0.05.
Striatal slices (200 μM thickness) were prepared using a McIlwain tissue chopper (Mickle Laboratory Engineering Co., Surrey, UK).

SMILES	Go (MOR level in anti-Gαo immunoprecipitates), average
COc1ccc2c3c1O[C@H]1C(=O)CC[C@@]4(O)[C@@H](C2)N(C)CC[C@]314 [Oxycodone, oxycodone, reference compound]	900.4

Same assay, conditions: 7 days of twice daily 1-hour exposures, organotypic striatal slice cultures

SMILES	switch of μ opioid receptor G protein coupling from Go to Gs
COc1ccc2c3c1O[C@H]1C(=O)CC[C@@]4(O)[C@@H](C2)N(C)CC[C@]314 [Oxycodone, oxycodone, reference compound]	switch from Go to Gs coupling

From patent US8580809B2, “Filamin A-binding anti-inflammatory analgesic” (Pain Therapeutics, Inc., priority 2009, dated 2013)
